Patent US8633245B2, “PAI-1 inhibitor” (Institute of Medicinal Molecular Design, Inc., priority 2008, dated 2014)
Like-named read-outs stand apart in the source and are kept apart here.

Columns and labels:
recombinant human PAI-1 [1] = target: T1, recombinant human PAI-1 (Homo sapiens, UniProt P05121); experiment: Test Example 1: human PAI-1 inhibitory activity (tPA fluorogenic substrate, pH 7.5 Tris buffer); format: biochemical; details: Tris buffer
T1 construct: purchased Molecular Innovations, Inc
Procedure: 50 mM Tris, 150 mM NaCl, 10 μg/ml BSA, 0.01% Tween80 (SIGMA-ALDRICH Corporation)

recombinant human PAI-1 [2] = target: T1, recombinant human PAI-1; experiment: Test Example 2: human PAI-1 inhibitory activity (tPA fluorogenic substrate, pH 7.4 HEPES buffer); format: biochemical; details: for inhibition at 3 µM: read-out: Inhibition Rate of PAI-1 Activity (%)
Procedure: 0.1 M HEPES, 0.1 M NaCl. 1 mM EDTA. 0.1% Polyethylene glycol 8,000 (Hampton Research Corporation),
2 mM Dimethyldecylphoshine oxide [Apo-10] (Fluka Corporation)

[3] = human PAI-1, compound concentration 0.1 μM
[4] = human PAI-1, compound concentration 0.3 μM
[5] = human PAI-1, compound concentration 1 μM
[6] = human PAI-1, compound concentration 3 μM
[7] = human PAI-1, calculated from the inhibition rates

T1 sequence (P05121 24-402): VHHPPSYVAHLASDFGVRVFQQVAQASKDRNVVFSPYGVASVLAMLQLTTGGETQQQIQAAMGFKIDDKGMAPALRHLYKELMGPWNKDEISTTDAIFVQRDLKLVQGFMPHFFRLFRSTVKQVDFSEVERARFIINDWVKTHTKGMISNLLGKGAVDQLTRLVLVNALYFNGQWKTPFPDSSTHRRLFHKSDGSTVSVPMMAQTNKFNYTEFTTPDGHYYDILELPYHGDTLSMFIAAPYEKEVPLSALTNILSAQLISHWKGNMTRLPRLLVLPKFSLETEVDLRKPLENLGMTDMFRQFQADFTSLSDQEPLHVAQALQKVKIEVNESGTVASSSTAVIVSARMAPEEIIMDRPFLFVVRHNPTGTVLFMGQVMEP

Compound | Inhibition Rate of PAI-1 Activity (%) (recombinant human PAI-1 [1]; Compound Concentration 5 μM) | Inhibition Rate of PAI-1 Activity (%) (recombinant human PAI-1 [1]; Compound Concentration 10 μM) | Inhibition Rate of PAI-1 Activity (%) (recombinant human PAI-1 [1]; Compound Concentration 25 μM) | also measured
O=C(O)C(=O)N(CCCc1ccccc1)c1ccc(-c2ccc(OC(F)(F)F)cc2)cc1 [Compound 224] | 29% | 63% | 86% | –
CC(C)(C)c1ccc(CN(C(=O)C(=O)O)c2ccccc2Sc2ccc(OC(F)(F)F)cc2)cc1 [Compound 631] | 58% | 86% | 86% | –
Cc1ccc(-c2cccc([N+](=O)[O-])c2)cc1N(Cc1ccc(C(C)(C)C)cc1)C(=O)C(=O)O [Compound 138] | – | 4% | 61% | –
CC(C)(C)c1ccc(CN(C(=O)C(=O)O)c2ccccc2-c2ccc(OC(F)(F)F)cc2)cc1 [Compound 148] | 17% | 55% | 98% | –
O=C(O)C(=O)N(Cc1c(Cl)cccc1Cl)c1ccc(-c2ccc(OC(F)(F)F)cc2)cc1 [Compound 171] | 22% | 44% | 81% | –
CC(C)(C)c1ccc(CN(C(=O)C(=O)O)c2cccc(OCc3ccc(OC(F)(F)F)cc3)c2)cc1 [Compound 619] | 48% | 83% | 92% | –
CC(C)(C)c1ccc(CN(C(=O)C(=O)O)c2ccc(N3CCCCC3=O)c(-c3ccc(OC(F)(F)F)cc3)c2)cc1 [Compound 219] | 33% | 58% | 86% | –
CC(C)(C)c1ccc(COc2ccc(-c3ccccc3)cc2CCC(=O)O)cc1 [Compound 32] | 22% | 47% | 97% | –
CC(C)(C)c1ccc(CN(C(=O)C(=O)O)c2ccc(SCc3ccc(OC(F)(F)F)cc3)cc2)cc1 [Compound 630] | 56% | 89% | 88% | –
CC(C)(C)c1ccc(COc2ccc(-c3ccc(C(C)(C)C)cc3)cc2CCC(=O)O)cc1 [Compound 40] | 22% | 66% | >99% | –
O=C(O)CCc1cc(-c2ccc(OC(F)(F)F)cc2)ccc1OCc1ccc(-c2ccccc2)cc1 [Compound 29] | 21% | 56% | 88% | –
Cc1ccc(N(Cc2ccc(C(C)(C)C)cc2)C(=O)C(=O)O)cc1Oc1ccc(OC(F)(F)F)cc1 [Compound 187] | 75% | 92% | 88% | –
CC(C)(C)c1ccc(COc2cc(/C=C/C(=O)O)cc(Oc3ccc(OC(F)(F)F)cc3)c2)cc1 [Compound 409] | 26% | 59% | 97% | –
O=C(O)C(=O)N(Cc1ccc(OC(F)(F)F)cc1)c1ccc(-c2ccccc2)cc1 [Compound 183] | – | 11% | 29% | –
CC(C)(C)c1ccc(COc2ccc(-c3ccc(OC(F)(F)F)cc3)cc2OCc2nnn[nH]2)cc1 [Compound 122] | 29% | 63% | 99% | –
Cc1cc(N(Cc2ccc(C(C)(C)C)cc2)C(=O)C(=O)O)ccc1-c1ccc(OC(F)(F)F)cc1 [Compound 184] | 59% | 86% | 85% | –

Compound | Inhibition Rate of PAI-1 Activity (%) (recombinant human PAI-1 [1]; Compound Concentration 5 μM) | Inhibition Rate of PAI-1 Activity (%) (recombinant human PAI-1 [1]; Compound Concentration 10 μM) | Inhibition Rate of PAI-1 Activity (%) (recombinant human PAI-1 [1]; Compound Concentration 25 μM) | also measured
CC(C)(C)c1ccc(CN(C(=O)C(=O)O)c2cc(-c3ccccc3)cc(C(F)(F)F)c2)cc1 [Compound 140] | 6% | 31% | 77% | –
CCCCCCCOc1cc(N(CCCCc2ccccc2)C(=O)C(=O)O)ccc1-c1ccc(OC(F)(F)F)cc1 [Compound 650] | – | – | – | Inhibition Rate of PAI-1 Activity (%) (recombinant human PAI-1 [2]; [3]): 16%; Inhibition Rate of PAI-1 Activity (%) (recombinant human PAI-1 [2]; [4]): 40%; Inhibition Rate of PAI-1 Activity (%) (recombinant human PAI-1 [2]; [5]): >99%; Inhibition Rate of PAI-1 Activity (%) (recombinant human PAI-1 [2]; [6]): >99%
CCCCCOc1ccc(-c2ccc(OC(F)(F)F)cc2)cc1N(CCCCOc1ccccc1)C(=O)C(=O)O [Compound 374] | – | – | – | IC50 (recombinant human PAI-1 [2]): 880 nM; inhibition at 3 µM (recombinant human PAI-1 [2]): > 99%
CC(Oc1cc(-c2ccc(OC(F)(F)F)cc2)ccc1CCC(=O)O)c1ccccc1 (stereo not shown) [Compound 501] | – | – | – | Inhibition Rate of PAI-1 Activity (%) (recombinant human PAI-1 [2]; [3]): 12%; Inhibition Rate of PAI-1 Activity (%) (recombinant human PAI-1 [2]; [4]): 0%; Inhibition Rate of PAI-1 Activity (%) (recombinant human PAI-1 [2]; [5]): 12%; Inhibition Rate of PAI-1 Activity (%) (recombinant human PAI-1 [2]; [6]): 83%
CC(C)c1ccc(-c2ccc(/C=C/C(=O)O)c(Oc3ccc(C(C)(C)C)cc3)c2)cc1 [Compound 518] | – | – | – | Inhibition Rate of PAI-1 Activity (%) (recombinant human PAI-1 [2]; [3]): 14%; Inhibition Rate of PAI-1 Activity (%) (recombinant human PAI-1 [2]; [4]): 54%; Inhibition Rate of PAI-1 Activity (%) (recombinant human PAI-1 [2]; [5]): >99%; Inhibition Rate of PAI-1 Activity (%) (recombinant human PAI-1 [2]; [6]): >99%
CCC(CC)Oc1ccc(-c2ccc(OC(F)(F)F)cc2)cc1N(CCCCc1ccccc1)C(=O)C(=O)O [Compound 369] | – | – | – | IC50 (recombinant human PAI-1 [2]): 690 nM
O=C(O)C(=O)N(Cc1ccc2ccccc2c1)c1ccc(-c2ccc(OC(F)(F)F)cc2)cc1 [Compound 661] | – | – | – | Inhibition Rate of PAI-1 Activity (%) (recombinant human PAI-1 [2]; [3]): 6%; Inhibition Rate of PAI-1 Activity (%) (recombinant human PAI-1 [2]; [4]): 11%; Inhibition Rate of PAI-1 Activity (%) (recombinant human PAI-1 [2]; [5]): 27%; Inhibition Rate of PAI-1 Activity (%) (recombinant human PAI-1 [2]; [6]): >99%
CC(C)(C)c1ccc(Sc2cc(-c3ccc(OC(F)(F)F)cc3)ccc2/C=C/C(=O)O)cc1 [Compound 462] | – | – | – | Inhibition Rate of PAI-1 Activity (%) (recombinant human PAI-1 [2]; [3]): 37%; Inhibition Rate of PAI-1 Activity (%) (recombinant human PAI-1 [2]; [4]): 94%; Inhibition Rate of PAI-1 Activity (%) (recombinant human PAI-1 [2]; [5]): 97%; Inhibition Rate of PAI-1 Activity (%) (recombinant human PAI-1 [2]; [6]): 95%
CC(C)(C)c1ccc(C(=O)c2cc(-c3ccc(OC(F)(F)F)cc3)ccc2OCC(=O)O)cc1 [Compound 549] | – | – | – | Inhibition Rate of PAI-1 Activity (%) (recombinant human PAI-1 [2]; [3]): 23%; Inhibition Rate of PAI-1 Activity (%) (recombinant human PAI-1 [2]; [4]): 22%; Inhibition Rate of PAI-1 Activity (%) (recombinant human PAI-1 [2]; [5]): 84%; Inhibition Rate of PAI-1 Activity (%) (recombinant human PAI-1 [2]; [6]): >99%
CCCCCOc1ccc(-c2cc(C)cc(C)c2)cc1N(CCCCc1ccccc1)C(=O)C(=O)O [Compound 672] | – | – | – | Inhibition Rate of PAI-1 Activity (%) (recombinant human PAI-1 [2]; [3]): 3%; Inhibition Rate of PAI-1 Activity (%) (recombinant human PAI-1 [2]; [4]): 15%; Inhibition Rate of PAI-1 Activity (%) (recombinant human PAI-1 [2]; [5]): 92%; Inhibition Rate of PAI-1 Activity (%) (recombinant human PAI-1 [2]; [6]): >99%
CC(C)(C)c1ccc(-c2ccc(CCC(=O)O)c(Oc3ccc(OC(F)(F)F)cc3)c2)cc1 [Compound 480] | – | – | – | Inhibition Rate of PAI-1 Activity (%) (recombinant human PAI-1 [2]; [3]): 17%; Inhibition Rate of PAI-1 Activity (%) (recombinant human PAI-1 [2]; [4]): 22%; Inhibition Rate of PAI-1 Activity (%) (recombinant human PAI-1 [2]; [5]): 80%; Inhibition Rate of PAI-1 Activity (%) (recombinant human PAI-1 [2]; [6]): >99%
CCCCCOc1cc(-c2ccc(OC(F)(F)F)cc2)ccc1N(CCCCc1ccccc1)CC(=O)O [Compound 643] | – | – | – | Inhibition Rate of PAI-1 Activity (%) (recombinant human PAI-1 [2]; [3]): 0%; Inhibition Rate of PAI-1 Activity (%) (recombinant human PAI-1 [2]; [4]): 18%; Inhibition Rate of PAI-1 Activity (%) (recombinant human PAI-1 [2]; [5]): 38%; Inhibition Rate of PAI-1 Activity (%) (recombinant human PAI-1 [2]; [6]): 92%
CCCCC(Oc1cc(-c2cccc(C(F)(F)F)c2)ccc1Oc1ccc(C(C)(C)C)cc1)C(=O)O (stereo not shown) [Compound 318] | – | – | – | IC50 (recombinant human PAI-1 [2]; [7]): 580 nM
CC(C)(C)c1ccc(Cc2cc(-c3ccc(OC(F)(F)F)cc3)ccc2OCC(=O)O)cc1 [Compound 550] | – | – | – | Inhibition Rate of PAI-1 Activity (%) (recombinant human PAI-1 [2]; [3]): 0%; Inhibition Rate of PAI-1 Activity (%) (recombinant human PAI-1 [2]; [4]): 2%; Inhibition Rate of PAI-1 Activity (%) (recombinant human PAI-1 [2]; [5]): 81%; Inhibition Rate of PAI-1 Activity (%) (recombinant human PAI-1 [2]; [6]): >99%
CC(C)(C)c1cccc(Oc2cc(-c3ccc(OC(F)(F)F)cc3)ccc2CCC(=O)O)c1 [Compound 336] | – | – | – | IC50 (recombinant human PAI-1 [2]; [7]): 1080 nM; inhibition at 3 µM (recombinant human PAI-1 [2]): > 99%
O=C(O)C(=O)N(CCCCc1ccccc1)c1cc(-c2ccc(OC(F)(F)F)cc2)ccc1OCCCC1CCCCC1 [Compound 656] | – | – | – | Inhibition Rate of PAI-1 Activity (%) (recombinant human PAI-1 [2]; [3]): 24%; Inhibition Rate of PAI-1 Activity (%) (recombinant human PAI-1 [2]; [4]): 64%; Inhibition Rate of PAI-1 Activity (%) (recombinant human PAI-1 [2]; [5]): 95%; Inhibition Rate of PAI-1 Activity (%) (recombinant human PAI-1 [2]; [6]): 88%

Now from value to compound, other results behind:

Inhibition Rate of PAI-1 Activity (%) (recombinant human PAI-1 [1]; Compound Concentration 5 μM) | Inhibition Rate of PAI-1 Activity (%) (recombinant human PAI-1 [1]; Compound Concentration 10 μM) | Inhibition Rate of PAI-1 Activity (%) (recombinant human PAI-1 [1]; Compound Concentration 25 μM) | Compound | also measured
39% | 84% | 90% | CC(C)(C)c1ccc(Oc2cc(-c3ccc(OC(F)(F)F)cc3)ccc2/C=C/C(=O)O)cc1 [Compound 79] | –
33% | 67% | 96% | CC(C)(C)c1ccc(COc2ccc(OCc3ccc(OC(F)(F)F)cc3)cc2CCC(=O)O)cc1 [Compound 414] | –
– | 13% | 80% | O=C(O)CCc1cc(-c2ccc(OC(F)(F)F)cc2)ccc1OCc1ccc(C(F)(F)F)cc1 [Compound 22] | –
– | 10% | 53% | O=C(O)CCc1cc(-c2ccc(OC(F)(F)F)cc2)ccc1OCc1ccc(F)cc1 [Compound 20] | –
44% | 79% | 98% | CN(c1ccc(OC(F)(F)F)cc1)c1ccc(OCc2ccc(C(C)(C)C)cc2)c(CCC(=O)O)c1 [Compound 417] | –
24% | 50% | 96% | CC(C)(C)c1ccc(COc2ccc(-c3ccc(OC(F)(F)F)cc3)cc2OCCCC(=O)O)cc1 [Compound 109] | –
40% | 74% | 95% | CC(C)(C)c1ccc(-c2ccc(OCc3cccc(OC(F)(F)F)c3)c(CCC(=O)O)c2)cc1 [Compound 68] | –
28% | 64% | 94% | CC(C)(C)c1ccc(-c2ccc(OCc3ccc(OC(F)(F)F)cc3)c(CCC(=O)O)c2)cc1 [Compound 52] | –
47% | 71% | 95% | CC(C)(C)c1ccc(-c2ccc(OCc3ccc(C(F)(F)F)cc3)c(CCC(=O)O)c2)cc1 [Compound 70] | –
